Where two headings read alike, the source gives them in different places.
System: PGE2 formation in normal human epidermal keratinocytes (NHEK)
Assay: Inhibition of PGE2 formation in irritated keratinocyte cultures (PGE2 immunoassay)
Assay type: cell-based
Conditions: 24 h; for inhibition at 50 µM: Homo sapiens, NHEK, read-out: relative inhibition in % of PGE2 formation in keratinocyte cultures at 50 μM; for relative inhibition in % of PGE2 formation in keratinocyte cultures at μM: column head prints only 'μM' (method: 50 μM or 10 μM), calcimycin 2.5 μM
Protocol: A confluent culture was trypsinated and adjusted to a density of 5×10^4 cells/ml. The cells were then seeded in the same medium but with only 1% fetal calf serum in 24 well plates and cultivated for a period of 48 h. A model irritating agent was then applied to the cells by adding calcimycin to a final level of 2.5 μM. The individual compounds, as listed below, dissolved in DMSO were added simultaneously. The final concentration of the compounds was 50 μM or 10 μM, the final DMSO concentration was adjusted to 1% (v/v). Parallel treatments received no calcimycin (non-irritated control) or calcimycin without compounds according to the present invention (irritated control). The DMSO concentration was adjusted to 1% in all these control treatments. […] The prostaglandin levels in treated cell cultures were compared to the irritated and non-irritated control cultures in order to determine the relative inhibition of PGE2 formation.

[1] = 50 μM compound, irritated with calcimycin 2.5 μM, 1% DMSO

## CCCCCCOC(=O)c1ccccc1O [n-Hexyl salicylate]
[1]
  inhibition at 50 µM: 82.9%
1% DMSO
  relative inhibition in % of PGE2 formation in keratinocyte cultures at μM: 91.6%

## CC/C=C\CCOC(=O)c1ccccc1O [cis-3-Hexen-1-yl salicylate]
[1]
  inhibition at 50 µM: 94.8%
1% DMSO
  relative inhibition in % of PGE2 formation in keratinocyte cultures at μM: 81.4%

## CC(=O)OCC=Cc1ccccc1 [Cinnamyl acetate]
[1]
  inhibition at 50 µM: 47.8%

## CCCCCCCC1CCCC1=O (stereo not drawn) [ALISMONE ™, 2-heptylcyclopentanone]
[1]
  inhibition at 50 µM: 92.4%
1% DMSO
  relative inhibition in % of PGE2 formation in keratinocyte cultures at μM: 47%

## CC(C)(C)C(=O)OCCc1ccccc1 [CENTIFOLYL ™, phenethyl pivalate]
[1]
  inhibition at 50 µM: 39%

## COc1ccc(CC2CC2)cc1 [TOSCANOL ®, 1-(cyclopropylmethyl)-4-methoxybenzene]
[1]
  inhibition at 50 µM: 56.7%

## CCOc1ccc2ccccc2c1 [NEROLINE ™ CRIST, 2-ethoxynaphthalene]
[1]
  inhibition at 50 µM: 83%
1% DMSO
  relative inhibition in % of PGE2 formation in keratinocyte cultures at μM: 50.2%

## O=C(C=Cc1ccccc1)OCCc1ccccc1 [Phenethyl cinnamate]
[1]
  inhibition at 50 µM: 91.7%
1% DMSO
  relative inhibition in % of PGE2 formation in keratinocyte cultures at μM: 93.6%

## N#CC(=C1CCCC1)c1ccccc1 [2-Cyclopentylidene-2-phenylacetonitrile]
[1]
  inhibition at 50 µM: 80.8%
1% DMSO
  relative inhibition in % of PGE2 formation in keratinocyte cultures at μM: 71.1%

## O=C(OC1CCCCC1)c1ccccc1O [Cyclohexyl salicylate, cyclohexyl 2-hydroxybenzoate]
[1]
  inhibition at 50 µM: 97.4%
1% DMSO
  relative inhibition in % of PGE2 formation in keratinocyte cultures at μM: 76.6%

## CCOc1cc(COC)ccc1O [METHYL DIANTILIS ®, 2-Ethoxy-4-(methoxymethyl)phenol]
1% DMSO
  relative inhibition in % of PGE2 formation in keratinocyte cultures at μM: 88.2%

## CC=C(C)C(=O)OCc1ccccc1 [TIGLATE BENZYLE, benzyl 2-methylbut-2-enoate]
[1]
  inhibition at 50 µM: 72.4%
1% DMSO
  relative inhibition in % of PGE2 formation in keratinocyte cultures at μM: 50.2%

## CCC(C)C(=O)OCCc1ccccc1 (stereo not drawn) [ANATOLYL ™, phenethyl 2-methylbutanoate]
[1]
  inhibition at 50 µM: 50.5%

## O=C(OCCc1ccccc1)c1ccccc1O [Phenethyl salicylate]
[1]
  inhibition at 50 µM: 50.9%

## O=C(OCCc1ccccc1)c1ccccc1 [Phenethyl benzoate]
[1]
  inhibition at 50 µM: 92.4%
1% DMSO
  relative inhibition in % of PGE2 formation in keratinocyte cultures at μM: 56.9%

## N#CC(=C1CCCCC1)c1ccccc1 [PEONILE ®, 2-cyclohexylidene-2-phenylacetonitrile]
[1]
  inhibition at 50 µM: 93.3%
1% DMSO
  relative inhibition in % of PGE2 formation in keratinocyte cultures at μM: 92.4%

## CC(C)Cc1ccc(CC(C)C=O)cc1 (stereo not drawn) [SILVIAL ®, 2-Methyl-3-(4-(2-methylpropyl)phenyl)propanal]
[1]
  inhibition at 50 µM: 62.7%

## CC(C=O)Cc1ccc(C(C)C)cc1 (stereo not drawn) [CYCLAMEN ALDEHYDE ™, 2-Methyl-3-(4-isopropylphenyl)propanal]
[1]
  inhibition at 50 µM: 82%
1% DMSO
  relative inhibition in % of PGE2 formation in keratinocyte cultures at μM: 32%

## CC=Cc1ccc(OC)cc1 [ANETHOLE, 1-methoxy-4-(prop-1-enyl)benzene]
[1]
  inhibition at 50 µM: 51%

## CC(C)COC(=O)c1ccccc1 [Isobutyl benzoate]
[1]
  inhibition at 50 µM: 52.5%

## O=C(C=Cc1ccccc1)OCC=Cc1ccccc1 [Cinnamyl cinnamate]
[1]
  inhibition at 50 µM: 64%

## CCC(CC)=C(C#N)c1ccccc1 [3-Ethyl-2-phenylpent-2-enenitrile]
[1]
  inhibition at 50 µM: 73.2%
1% DMSO
  relative inhibition in % of PGE2 formation in keratinocyte cultures at μM: 63.9%

## CCOc1cc(COC(C)C)ccc1O [PROPYL DIANTILIS, 2-Ethoxy-4-(isopropoxymethyl)phenol]
  inhibition at 50 µM: 90.9%
1% DMSO
  relative inhibition in % of PGE2 formation in keratinocyte cultures at μM: 95.1%

## CC(C)C(=O)OCCc1ccccc1 [Phenethyl isobutyrate]
[1]
  inhibition at 50 µM: 44.8%

## CC(C)COC(=O)c1ccccc1O [Isobutyl salicylate, isobutyl 2-hydroxybenzoate]
[1]
  inhibition at 50 µM: 69.1%
1% DMSO
  relative inhibition in % of PGE2 formation in keratinocyte cultures at μM: 73.1%

## CC(C)(C)c1ccc(CCC=O)cc1 [BOURGEONAL ™, 3-(4-tert-butylphenyl)propanal]
[1]
  inhibition at 50 µM: 65%

## CCCCCOC(=O)c1ccccc1O [Amyl salicylate, pentyl 2-hydroxybenzoate]
[1]
  inhibition at 50 µM: 89.8%
1% DMSO
  relative inhibition in % of PGE2 formation in keratinocyte cultures at μM: 73.5%
